Results: patent US8575092B2, “Gelling hydrophobic injectable polymer compositions” (Efrat Biopolymers Ltd., priority 2005, dated 2013)

Key:
[1] = Solubility of bupivacaine free base in the polymer; format: physicochemical
Protocol: Bupivacaine free base (5, 7, 10% w/w) was incorporated in the liquid polymers by mixing the drug powder in the polymer at 40° C. and filling 1 ml syringe with this formulation. This formulation is a semi-solid at room temperature and liquid at body temperature. […] The free base bupivacaine formed a clear solution in the polymer while the HCl salt was a fine dispersion.
Bupivacaine was incorporated in the polymer without affecting the polymer molecular weight, as confirmed by GPC. Bupivacaine free base (BFB) is easily soluble in P(SA-RA) up to 15% w/w BFB. The hydrochloride salt dispersed well in the polymer without affecting its viscosity at least up to 15% w/w loading. P(SA-RA) 2:8 and 3:7 formulations containing 5% and 7% of bupivacaine constantly released the drug at a first order profile with about 60% of the incorporated drug was released during 7 days in buffer, formulation containing 10% released approximately 70% of its content during this period. For all experiments, the higher MW polymers (Mw=18,000) release the drug at a slower rate, between 10 and 20% less the amount released at each time point, compared to the low MW polymers (Mw=5,000).

[2] = mouse
Protocol: Inbred 8-10 week old female C3H mice, weighing about 20 g (Harlan Laboratories, Israel) were kept under specific pathogen free (SPF) conditions and given free access to irradiated sterile food and acidified water throughout the experiment. Blank polymer and pasty formulations containing paclitaxel (5% and 10% w/w) were injected subcutaneously to the backspace via a 23G needle into 12 groups of four C3H mice in each group. […] After 1, 7, 21 and 70 days, mice were sacrificed by cervical dislocation. The polymer implant was taken out, weighed before and after lyophilization and examined for paclitaxel content in the remaining formulation.

S. aureus = assay: Minimum inhibitory concentration of gentamicin; format: cell-based; details: S. aureus used in this study
Protocol: The minimum inhibitory concentration of gentamicin for the S. aureus used in this study is 2-4 μg/ml. […] No effect was found in these wells: the O.D. was approximately 0.7. In the wells that contained S. aureus in TSB only, O.D. of approximately 0.6 was found. In view of the results of gentamicin release (FIG. 14) and the profound bacterial inhibition by the diluted solutions (FIG. 15), there is probably a significant antibacterial activity in the release medium at an earlier stage.

CCCCN1CCCCC1C(=O)Nc1c(C)cccc1C (stereo not drawn) [BFB, Bupivacaine]
solubility in P(SA-RA) [1]: up to 15 % w/w

Poly(sebacic acid-co-ricinoleic acid ester anhydride) 2:8 [P(SA:RA) (2:8)]
in vivo degradation [2]: completely degraded

gentamicin
minimum inhibitory concentration (S. aureus): 2 to 4 µg/mL
